Patent US11236124B2, “Method and composition for hydrolyzing eggshell membrane” (EGGNOVO S.L., priority 2017, dated 2022)

Columns and labels:
Assay type in all cases: biochemical
[1] = system: eggshell membrane; assay: Testing of denaturing agents for eggshell membrane dissolution; details: denaturing agent used for eggshell membrane hydrolysis
[2] = system: eggshell membrane; assay: Eggshell membrane solubilization with different enzymes and reducing agents (Example 1); details: 10 mg eggshell membrane/ml
Description: A solution for solubilizing eggshell membrane was prepared at a ratio of 10 mg of eggshell membrane/ml of solution. Said solution comprised a denaturing agent, and more specifically a denaturing agent having detergent properties and an amphiphilic nature such as SDS, at a concentration of 0.5-5%. The solution also comprised a reducing agent, for which solutions of the following reducing agents were prepared at a concentration of 100 mM-1 M: sodium sulfite (Na2SO3), sodium hydrosulfite (Na2S2O4), sodium hydroxymethanesulfinate (HOCH2SO2Na), sodium metabisulfite (Na2S2O5), and dithiothreitol (DTT); these solutions were tested successively. Finally, a suitable buffer was added for maintaining the pH depending on the enzyme that was going to be used, having a concentration of 25-50 mM. Once the pH was adjusted with a pH-meter to the optimum pH for each enzyme, the enzyme previously prepared according to the manufacturer's specification at a concentration of 1% was added to the solution, such that the final concentration of the enzyme with respect to the total solution was 0.05-0.5%. The same was performed with each of the enzymes used in the present example.
Once all the components were mixed and homogenized, said mixture was incubated at the maximum temperature of activity of each enzyme. The level of hydrolysis was assessed after 1, 12, and 24 hours of incubation and the results were compared against a control that is performed and only differs from the test solutions by the absence of enzyme.

[3] = system: eggshell membrane; assay: Hydrolyzation of different amounts of eggshell membrane with 0.1% papain (Example 3); details: papain 0.1%, 12 h, 100 mM Na2S2O5, SDS, pH 6.2, 38° C.
Description: Specifically, different solutions with different amounts of eggshell membrane were prepared such that final concentrations with respect to the total solution volume of 20, 30, 40, 50, 70, 100, and 150 mg of eggshell membrane/ml of solution were obtained. The solution contained 100 mM sodium metabisulfite (Na2S2O5), 0.5-5% SDS in 50 mM HEPES buffer adjusted to pH 6.2 with a pH-meter. 1% papain previously activated in a 0.15 M sodium chloride solution was then added such that the concentration of the enzyme with respect to the final volume of the mixture was 0.05-0.5%. Once all the components were mixed and homogenized, said mixture was incubated at 38° C. for 12 h and the results were compared against a control that is performed and only differs from the test solutions by the absence of enzyme. A clear, amber-colored solution was obtained, the color of which intensifies as the membrane concentration increases, in addition to the presence of a precipitate increasing, which indicates a lower level of hydrolysis.

[4] = system: eggshell membrane; assay: Eggshell membrane solubilization with papain at different Na2S2O5 concentrations, with or without SDS (Example 2); details: 38° C., 12 h, 10 mg membrane/ml
Description: Specifically, a solution for solubilizing 10 mg of eggshell membrane/ml of solution was prepared. Said solution only contained 100 mM sodium metabisulfite (Na2S2O5) (1). Three other similar solutions were prepared with an increasing order of concentration of Na2S2O5, i.e., 5 mM (2), 50 mM (3), and 100 mM (4), but in this case they contained 0.5-5% SDS in 50 mM HEPES buffer adjusted to pH 6.2 with a pH-meter. It was verified that the optimum range of sodium metabisulfite (Na2S2O5) for the present invention is between 50 and 150 mM. Papain previously activated in a 0.15 M sodium chloride solution was added such that the final concentration of the enzyme in the mixture was 0.05-0.5%. Once all the components were mixed and homogenized, said mixture was incubated at 38° C. for 12 h. The level of hydrolysis was evaluated after 12 hours of incubation and the results were compared against a control that is performed and only differs from the test solutions by the absence of enzyme.

[5] = SDS + Na2S2O4, 24 h, pH optimum of each enzyme
[6] = SDS + Na2SO3, 24 h, pH optimum of each enzyme
[7] = SDS + DTT, 24 h, pH optimum of each enzyme
[8] = SDS + HOCH2SO2Na, 24 h, pH optimum of each enzyme
[9] = SDS + Na2S2O5, 24 h, pH optimum of each enzyme

% solubilized ([2]; SDS + DTT, 1 h, pH 6.2) [%]	% solubilized ([2]; SDS + HOCH2SO2Na, 12 h, pH 6.2) [%]	% solubilized [2, 5] [%]	% solubilized ([2]; SDS + Na2S2O5, 1 h, pH 6.2) [%]	% solubilized [2, 6] [%]	% solubilized [2, 7] [%]	% solubilized [2, 8] [%]	% solubilized [2, 9] [%]	Molecule	dissolution results with the denaturing agent [1]	other results
								CCCCCCCCCCCCOS(=O)(=O)[O-].[Na+] [SDS, sodium lauryl sulfate]	excellent results	
								NC(N)=O [urea]	without obtaining satisfactory dissolution results	
100	100	0	100	0				Bromelain		
		0		0	50	0	50	Ficin		
		0		0	0	0	0	Pepsin		
100	100	0	100	0				Papain: protease of plant origin with endopeptidase activity from the group of cysteine proteases (protein, UniProt P00784 134-345, looked up) Papain: IPEYVDWRQKGAVTPVKNQGSCGSCWAFSAVVTIEGIIKIRTGNLNEYSEQELLDCDRRSYGCNGGYPWSALQLVAQYGIHYRNTYPYEGVQRYCRSREKGPYAAKTDGVRQVQPYNEGALLYSIANQPVSVVLEAAGKDFQLYRGGIFVGPCGNKVDHAVAAVGYGPNYILIKNSWGTGWGENGYIRIKRGTGNSYGVCGLYTSSFYPVKN		% of hydrolyzation ([3]; membrane 20 mg/ml): 100%; % of hydrolyzation ([3]; membrane 30 mg/ml): 100%; % of hydrolyzation ([3]; membrane 50 mg/ml): 100%; % of hydrolyzation ([3]; membrane 70 mg/ml): 100%; % of hydrolyzation ([3]; membrane 100 mg/ml): 90%; % of hydrolyzation ([3]; membrane 150 mg/ml): 80%; % solubilized ([4]; (1) Na2S2O5 100 mM, no SDS): 0%; % solubilized ([4]; (2) SDS + Na2S2O5 5 mM, pH 6.2): 0%; % solubilized ([4]; (3) SDS + Na2S2O5 50 mM, pH 6.2): 70%; % solubilized ([4]; (4) SDS + Na2S2O5 100 mM, pH 6.2): 100%
